Results: patent US20080275123A1, “N-HALOGENATED AMINO ACID FORMULATIONS” (ALCON RESEARCH, LTD., priority 2007, published 2008)

Assays:
[1] = tested on: C. albicans; assay: Antimicrobial activity by standard microbiological analysis (viability after exposure to test agent); format: cell-based; settings: when 10 mM TBAH phase transfer agent is added
Protocol: The antimicrobial activity of certain formulations described herein was evaluated by a standard microbiological analysis. For the evaluation, bacterial and fungal isolates were grown overnight on appropriate agar media as source of fresh cells. A suspension of these fresh cells was prepared in saline at approximately 1×10^8 cfu/mL. These suspensions were added directly to the test agents (various solutions of sodium 2,2-dimethyl-N,N-dichlorotaurine and control solutions). The initial concentration of cells in the test agent solutions was approximately 1×10^6 cfu/mL. The exposure of microorganisms to the test agent was conducted at room temperature for up to 60 minutes. At selected times, an aliquot was withdrawn and diluted into phosphate buffered saline at 4° C. Viability was determined following serial dilution and filtration onto Milliflex cassettes.

[2] = Partitioning experiment, aqueous solution / dichloromethane; format: physicochemical; settings: 4 mM compound, pH 4; for Log P: dichloromethane/aqueous; for 2,2-dimethyl-N,N-dichlorotaurine in aqueous After Partitioning % 2,2-dimethyl-N,N-dichlorotaurine: equal volume dichloromethane overnight
Protocol: Example 6 provides evidence of ion pairing taking place between a N-halogenated amino acid and a phase transfer agent, and the resulting changes in partitioning behavior. The partitioning experiment can be used to evaluate a compound's apparent lipophilicity and the potential improvement in antimicrobial activity when used on tissue.
Aqueous solutions were prepared containing 0.1% (4 mM) sodium 2,2-dimethyl-N,N-dichlorotaurine, tetrabutylammonium hydroxide (TBAH) at 0 mM, 1 mM, 4 mM, or 10 mM, 5 mM sodium acetate, sodium chloride to adjust osmolality to isotonic, and sodium hydroxide and/or hydrochloric acid to adjust pH to 4.
These aqueous solutions were assayed for 2,2-dimethyl-N,N-dichlorotaurine by reverse phase high pressure liquid chromatography. Each solution was then combined with an equal volume of dichloromethane, mixed on a rocker overnight, and the aqueous phase reassayed. The percent loss of 2,2-dimethyl-N,N-dichlorotaurine from the aqueous phase and theoretical percent of 2,2-dimethyl-N,N-dichlorotaurine partitioning to the dichloromethane were calculated and plotted versus the concentration of TBAH.
The theoretical percentage of 2,2-dimethyl-N,N-dichlorotaurine in dichloromethane phase is calculated as 100 percent minus the percent remaining in aqueous phase. FIG. 2 graphically illustrates the results of the above-described partitioning experiment. When 4 mM 2,2-dimethyl-N,N-dichlorotaurine in aqueous solution is combined with varying concentrations of TBAH, the quantity of 2,2-dimethyl-N,N-dichlorotaurine found in the aqueous solution decreases. Without added TBAH, almost all the 2,2-dimethyl-N,N-dichlorotaurine is found in the aqueous fraction. However, with 10 mM TBAH, most of the 2,2-dimethyl-N,N-dichlorotaurine has left the aqueous fraction and partitioned to the dichloromethane. This experiment is evidence of ion pair formation with TBAH phase transfer agent, which increases the apparent lipophilicity of the 2,2-dimethyl-N,N-dichlorotaurine.

For `CC(C)(CS(=O)(=O)O)N(Cl)Cl` [2,2-dimethyl-N,N-dichlorotaurine], the “antimicrobial activity (FIG. 1)” value [1] was “dramatically increased”, the “2,2-dimethyl-N,N-dichlorotaurine in aqueous After Partitioning % in Aqueous” value ([2]; TBAH 0 mM) was 96.1% and the “2,2-dimethyl-N,N-dichlorotaurine in aqueous Before Partitioning % 2,2-dimethyl-N,N-dichlorotaurine” value ([2]; TBAH 0 mM) was 0.1007%. For the same compound, the “Calculated 2,2-dimethyl-N,N-dichlorotaurine % in CH2Cl2 After Partitioning Theory % in Dichloromethane” value ([2]; TBAH 0 mM) was 3.9%, the “Log P” value ([2]; TBAH 0 mM) was −1.39 and the “2,2-dimethyl-N,N-dichlorotaurine in aqueous After Partitioning % 2,2-dimethyl-N,N-dichlorotaurine” value ([2]; TBAH 0 mM) was 0.09675%. The “2,2-dimethyl-N,N-dichlorotaurine in aqueous After Partitioning % in Aqueous” value ([2]; TBAH 1 mM) was 76.1%, the “2,2-dimethyl-N,N-dichlorotaurine in aqueous Before Partitioning % 2,2-dimethyl-N,N-dichlorotaurine” value ([2]; TBAH 1 mM) was 0.1008% and the “Calculated 2,2-dimethyl-N,N-dichlorotaurine % in CH2Cl2 After Partitioning Theory % in Dichloromethane” value ([2]; TBAH 1 mM) was 23.9%. The “Log P” value ([2]; TBAH 1 mM) was −0.50, the “2,2-dimethyl-N,N-dichlorotaurine in aqueous After Partitioning % 2,2-dimethyl-N,N-dichlorotaurine” value ([2]; TBAH 1 mM) was 0.07672% and the “2,2-dimethyl-N,N-dichlorotaurine in aqueous After Partitioning % in Aqueous” value ([2]; TBAH 4 mM) was 35.4%. For the same compound, the “2,2-dimethyl-N,N-dichlorotaurine in aqueous Before Partitioning % 2,2-dimethyl-N,N-dichlorotaurine” value ([2]; TBAH 4 mM) was 0.1008%, the “Calculated 2,2-dimethyl-N,N-dichlorotaurine % in CH2Cl2 After Partitioning Theory % in Dichloromethane” value ([2]; TBAH 4 mM) was 64.6% and the “Log P” value ([2]; TBAH 4 mM) was 0.26. The “2,2-dimethyl-N,N-dichlorotaurine in aqueous After Partitioning % 2,2-dimethyl-N,N-dichlorotaurine” value ([2]; TBAH 4 mM) was 0.03573%, the “2,2-dimethyl-N,N-dichlorotaurine in aqueous After Partitioning % in Aqueous” value ([2]; TBAH 10 mM) was 11.9% and the “2,2-dimethyl-N,N-dichlorotaurine in aqueous Before Partitioning % 2,2-dimethyl-N,N-dichlorotaurine” value ([2]; TBAH 10 mM) was 0.1009%. For the same compound, the “Calculated 2,2-dimethyl-N,N-dichlorotaurine % in CH2Cl2 After Partitioning Theory % in Dichloromethane” value ([2]; TBAH 10 mM) was 88.1%, the “Log P” value ([2]; TBAH 10 mM) was 0.87 and the “2,2-dimethyl-N,N-dichlorotaurine in aqueous After Partitioning % 2,2-dimethyl-N,N-dichlorotaurine” value ([2]; TBAH 10 mM) was 0.01198%.
